Patent publication US8022099B2, “N-benzyl pyrrolidine derivatives” (Hoffmann-La Roche Inc., priority 2008, dated 2011)

Molecular target: T1, human NK3 receptor (Homo sapiens, UniProt P29371)
T1 construct: expressed in transfected cells; host or cells: HEK293 cells (transient expression), membrane preparation
T1 sequence (P29371 1-465): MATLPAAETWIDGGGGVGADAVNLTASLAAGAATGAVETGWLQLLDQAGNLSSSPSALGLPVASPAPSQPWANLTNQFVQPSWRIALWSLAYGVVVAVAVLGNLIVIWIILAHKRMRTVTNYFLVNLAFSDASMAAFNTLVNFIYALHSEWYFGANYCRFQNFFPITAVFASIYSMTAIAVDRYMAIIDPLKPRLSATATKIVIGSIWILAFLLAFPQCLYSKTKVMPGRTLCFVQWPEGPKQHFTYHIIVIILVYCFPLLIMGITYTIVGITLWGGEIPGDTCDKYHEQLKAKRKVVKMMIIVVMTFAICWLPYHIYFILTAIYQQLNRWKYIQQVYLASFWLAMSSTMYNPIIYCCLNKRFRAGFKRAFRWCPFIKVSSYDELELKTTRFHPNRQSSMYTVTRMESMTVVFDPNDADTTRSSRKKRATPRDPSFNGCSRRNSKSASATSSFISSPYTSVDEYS
Assay: [3H]SR142801 competition binding assay
Conditions: hNK3 receptor binding, [3H]SR142801, membranes from HEK293 cells transiently expressing recombinant human NK3 receptor
Experimental: [^3H]SR142801 Competition Binding Assay
hNK3 receptor binding experiment were performed using [^3H]SR142801 (Catalog No. TRK1035, specific activity: 74.0 Ci/mmol, Amersham, GE Healthcare UK limited, Buckinghamshire, UK) and membrane isolated from HEK293 cells transiently expressing recombinant human NK3 receptor. After thawing, the membrane homogenates were centrifuged at 48,000×g for 10 min at 4° C., the pellets were resuspended in the 50 mM Tris-HCl, 4 mM MnCl2, 1 μM phosphoramidon, 0.1% BSA binding buffer at pH 7.4 to a final assay concentration of 5 μg protein/well. For inhibition experiments, membranes were incubated with [^3H]SR142801 at a concentration equal to KD value of radioligand and 10 concentrations of the inhibitory compound (0.0003-10 μM) (in a total reaction volume of 500 μl) for 75 min at room temperature (RT). At the end of the incubation, membranes were filtered onto unitfilter (96-well white microplate with bonded GF/C filter preincubated 1 h in 0.3% PEI+0.3% BSA, Packard BioScience, Meriden, Conn.) with a Filtermate 196 harvester (Packard BioScience) and washed 4 times with ice-cold 50 mM Tris-HCl, pH 7.4 buffer. Nonspecific binding was measured in the presence of 10 μM SB222200 for both radioligands. The radioactivity on the filter was counted (5 min) on a Packard Top-count microplate scintillation counter with quenching correction after addition of 45 μl of microscint 40 (Canberra Packard S. A., Zürich, Switzerland) and shaking for 1 h. Inhibition curves were fitted according to the Hill equation: y=100/(1+(x/IC50)^nH), where nH=slope factor using Excel-fit 4 software (Microsoft). IC50 values were derived from the inhibition curve and the affinity constant (Ki) values were calculated using the Cheng-Prussoff equation Ki=IC50/(1+[L]/KD) where [L] is the concentration of radioligand and KD is its dissociation constant at the receptor, derived from the saturation isotherm. All experiments were performed in duplicate and the mean±standard error (SEM) of the individual Ki values was calculated.

Ki [nM] | SMILES
1.8 | CN(Cc1ccc(C(F)(F)F)c(F)c1)[C@H]1CN(C(=O)N2CCN(S(=O)(=O)N(C)C)CC2)C[C@@H]1c1ccc(Cl)c(Cl)c1 (racemic) [Example 76, 4-{(3SR,4RS)-3-(3,4-Dichloro-phenyl)-4-[(3-fluoro-4-trifluoromethyl-benzyl)-methyl-amino]-pyrrolidine-1-carbonyl}-piperazine-1-sulfonic acid dimethylamide]
26.8 | COc1cccc(N2CCN(C(=O)N3C[C@H](c4ccc(Cl)c(Cl)c4)[C@@H](N(C)Cc4ccc(C(F)(F)F)c(F)c4)C3)CC2)n1 (racemic) [Example 77, {(3SR,4RS)-3-(3,4-Dichloro-phenyl)-4-[(3-fluoro-4-trifluoromethyl-benzyl)-methyl-amino]-pyrrolidin-1-yl}-[4-(6-methoxy-pyridin-2-yl)-piperazin-1-yl]-methanone]
4.8 | CCN(CC)C(=O)N1CCN(C(=O)N2C[C@H](c3ccc(Cl)c(Cl)c3)[C@@H](N(C)Cc3ccc(C(F)(F)F)c(F)c3)C2)CC1 (racemic) [Example 78, 4-{(3SR,4RS)-3-(3,4-Dichloro-phenyl)-4-[(3-fluoro-4-trifluoromethyl-benzyl)-methyl-amino]-pyrrolidine-1-carbonyl}-piperazine-1-carboxylic acid diethylamide]
1.9 | CN(Cc1ccc(C(F)(F)F)c(F)c1)[C@H]1CN(C(=O)N2CCN(CCC#N)CC2)C[C@@H]1c1ccc(Cl)c(Cl)c1 (racemic) [Example 79, 3-(4-{(3SR,4RS)-3-(3,4-Dichloro-phenyl)-4-[(3-fluoro-4-trifluoromethyl-benzyl)-methyl-amino]-pyrrolidine-1-carbonyl}-piperazin-1-yl)-propionitrile]
20.8 | CN(Cc1ccc(C(F)(F)F)c(F)c1)[C@H]1CN(C(=O)N2CCC(O)(c3ccncc3)CC2)C[C@@H]1c1ccc(Cl)c(Cl)c1 (racemic) [Example 80, {(3SR,4RS)-3-(3,4-Dichloro-phenyl)-4-[(3-fluoro-4-trifluoromethyl-benzyl)-methyl-amino]-pyrrolidin-1-yl}-(4-hydroxy-3,4,5,6-tetrahydro-2H-[4,4′]bipyridinyl-1-yl)-methanone]
14.6 | CN(Cc1ccc(C(F)(F)F)c(F)c1)[C@H]1CN(C(=O)N2CCN(S(C)(=O)=O)CC2)C[C@@H]1c1ccc(Cl)c(F)c1 (racemic) [Example 81, {(3SR,4RS)-3-(4-Chloro-3-fluoro-phenyl)-4-[(3-fluoro-4-trifluoromethyl-benzyl)-methyl-amino]-pyrrolidin-1-yl}-(4-methanesulfonyl-piperazin-1-yl)-methanone]
39.7 | CN(Cc1ccc(C(F)(F)F)c(F)c1)[C@H]1CN(C(=O)N2CCCN(S(C)(=O)=O)CC2)C[C@@H]1c1ccc(Cl)c(F)c1 (racemic) [Example 82, {(3SR,4RS)-3-(4-Chloro-3-fluoro-phenyl)-4-[(3-fluoro-4-trifluoromethyl-benzyl)-methyl-amino]-pyrrolidin-1-yl}-(4-methanesulfonyl-[1,4]diazepan-1-yl)-methanone]
6 | CN(Cc1ccc(C(F)(F)F)cc1)[C@H]1CN(C(=O)N2CCN(S(C)(=O)=O)CC2)C[C@@H]1c1ccc(Cl)c(Cl)c1 (racemic) [Example 83, {(3SR,4RS)-3-(3,4-Dichloro-phenyl)-4-[methyl-(4-trifluoromethyl-benzyl)-amino]-pyrrolidin-1-yl}-(4-methanesulfonyl-piperazin-1-yl)-methanone]
15.5 | CN(Cc1ccc(C(F)(F)F)cc1)[C@H]1CN(C(=O)CCCCN2CCOCC2)C[C@@H]1c1ccc(Cl)c(Cl)c1 (racemic) [Example 84, 1-{(3SR,4RS)-3-(3,4-Dichloro-phenyl)-4-[methyl-(4-trifluoromethyl-benzyl)-amino]-pyrrolidin-1-yl}-5-morpholin-4-yl-pentan-1-one]
97.6 | CNCCCCC(=O)N1C[C@H](c2ccc(Cl)c(Cl)c2)[C@@H](N(C)Cc2ccc(C(F)(F)F)c(F)c2)C1 (racemic) [Example 86, 1-{(3SR,4RS)-3-(3,4-Dichloro-phenyl)-4-[(3-fluoro-4-trifluoromethyl-benzyl)-methyl-amino]pyrrolidin-1-yl}-5-methylamino-pentan-1-one]
51.2 | CN(C)CCCCC(=O)N1C[C@H](c2ccc(Cl)c(Cl)c2)[C@@H](N(C)Cc2ccc(C(F)(F)F)c(F)c2)C1 (racemic) [Example 87, 1-{(3SR,4RS)-3-(3,4-Dichloro-phenyl)-4-[(3-fluoro-4-trifluoromethyl-benzyl)-methyl-amino]-pyrrolidin-1-yl}-5-dimethylamino-pentan-1-one]
24.7 | CN(Cc1ccc(C(F)(F)F)c(F)c1)[C@H]1CN(C(=O)CCCCN2CCNCC2)C[C@@H]1c1ccc(Cl)c(Cl)c1 (racemic) [Example 88, 1-{(3SR,4RS)-3-(3,4-Dichloro-phenyl)-4-[(3-fluoro-4-trifluoromethyl-benzyl)-methyl-amino]-pyrrolidin-1-yl}-5-piperazin-1-yl-pentan-1-one]
26.9 | CN1CCN(CCCCC(=O)N2C[C@H](c3ccc(Cl)c(Cl)c3)[C@@H](N(C)Cc3ccc(C(F)(F)F)c(F)c3)C2)CC1 (racemic) [Example 89, 1-{(3SR,4RS)-3-(3,4-Dichloro-phenyl)-4-[(3-fluoro-4-trifluoromethyl-benzyl)-methyl-amino]-pyrrolidin-1-yl}-5-(4-methyl-piperazin-1-yl)-pentan-1-one]
8.6 | CN(Cc1ccc(C(F)(F)F)c(F)c1)[C@H]1CN(C(=O)CCCCN2CCN(S(=O)(=O)N(C)C)CC2)C[C@@H]1c1ccc(Cl)c(Cl)c1 (racemic) [Example 90, 4-(5-{(3SR,4RS)-3-(3,4-Dichloro-phenyl)-4-[(3-fluoro-4-trifluoromethyl-benzyl)-methyl-amino]-pyrrolidin-1-yl}-5-oxo-pentyl)-piperazine-1-sulfonic acid dimethylamide]
57.2 | CN(Cc1ccc(C(F)(F)F)c(F)c1)[C@H]1CN(C(=O)CCCCn2ccnc2)C[C@@H]1c1ccc(Cl)c(Cl)c1 (racemic) [Example 91, 1-{(3SR,4RS)-3-(3,4-Dichloro-phenyl)-4-[(3-fluoro-4-trifluoromethyl-benzyl)-methyl-amino]-pyrrolidin-1-yl}-5-imidazol-1-yl-pentan-1-one]
46.6 | CN(Cc1ccc(C(F)(F)F)c(F)c1)[C@H]1CN(C(=O)CCCCN2CCCC2)C[C@@H]1c1ccc(Cl)c(Cl)c1 (racemic) [Example 92, 1-{(3SR,4RS)-3-(3,4-Dichloro-phenyl)-4-[(3-fluoro-4-trifluoromethyl-benzyl)-methyl-amino]-pyrrolidin-1-yl}-5-pyrrolidin-1-yl-pentan-1-one]
24.3 | CN(Cc1ccc(C(F)(F)F)c(F)c1)[C@H]1CN(C(=O)CCCCC(=O)c2ccccn2)C[C@@H]1c1ccc(Cl)c(Cl)c1 (racemic) [Example 95, 1-{(3SR,4RS)-3-(3,4-Dichloro-phenyl)-4-[(3-fluoro-4-trifluoromethyl-benzyl)-methyl-amino]-pyrrolidin-1-yl}-6-pyridin-2-yl-hexane-1,6-dione]
52.7 | CN(Cc1ccc(C(F)(F)F)c(F)c1)[C@H]1CN(C(=O)CCCCC(N)=O)C[C@@H]1c1ccc(Cl)c(Cl)c1 (racemic) [Example 98, 6-{(3SR,4RS)-3-(3,4-Dichloro-phenyl)-4-[(3-fluoro-4-trifluoromethyl-benzyl)-methyl-amino]-pyrrolidin-1-yl}-6-oxo-hexanoic acid amide]
70.8 | CN(Cc1ccc(C(F)(F)F)c(F)c1)[C@H]1CN(C(=O)CCCCC#N)C[C@@H]1c1ccc(Cl)c(Cl)c1 (racemic) [Example 102, 6-{(3SR,4RS)-3-(3,4-Dichloro-phenyl)-4-[(3-fluoro-4-trifluoromethyl-benzyl)-methyl-amino]-pyrrolidin-1-yl}-6-oxo-hexanenitrile]
62.2 | CC(=O)NC1CCN(CCCCC(=O)N2C[C@H](c3ccc(Cl)c(Cl)c3)[C@@H](N(C)Cc3ccc(C(F)(F)F)c(F)c3)C2)CC1 (racemic) [Example 105, N-[1-(5-{(3SR,4RS)-3-(3,4-Dichloro-phenyl)-4-[(3-fluoro-4-trifluoromethyl-benzyl)-methyl-amino]-pyrrolidin-1-yl}-5-oxo-pentyl)-piperidin-4-yl]-acetamide]
